Experimental findings from ChEMBL document CHEMBL3992567, “Discovery of Highly Potent 2-Sulfonyl-Pyrimidinyl Derivatives for Apoptosis Inhibition and Ischemia Treatment” (ACS Med Chem Lett, 2017) are described below.

Activity calls are given as the source filed them. No cut-off for these calls is given here. Residues, ends and D or L forms follow the SMILES beside them.

Experiment [1] has as its target T1, Succinate dehydrogenase [ubiquinone] iron-sulfur subunit, mitochondrial (Homo sapiens) (UniProt P21912).
T1 sequence (whole entry): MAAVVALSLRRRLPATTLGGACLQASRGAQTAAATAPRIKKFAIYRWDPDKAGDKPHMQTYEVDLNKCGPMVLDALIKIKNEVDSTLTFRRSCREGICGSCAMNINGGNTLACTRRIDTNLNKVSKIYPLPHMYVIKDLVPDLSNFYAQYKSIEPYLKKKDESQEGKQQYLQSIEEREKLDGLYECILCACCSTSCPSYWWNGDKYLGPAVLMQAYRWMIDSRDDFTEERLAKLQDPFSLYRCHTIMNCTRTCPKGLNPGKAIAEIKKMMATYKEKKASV
Put plainly: Irreversible inhibition of SDHB in human U2OS cells over-expressing Bim assessed as inhibition of apoptosis preincubated for 1 hr followed by compound washout and doxycyclin addition to induce Bim protein expression measured after 24 hrs by Cell Titer-Glo assay. In kind it is cell-based.

Experiment [2] concerns U2OS. Nature of the experiment: Inhibition of mitochondrial-mediated apoptosis in human U2OS cells assessed as reduction in mitochondrial membrane potential loss at 1 uM preincubated for 1 hr followed by doxycyclin addition measured after 4 hrs by TMRM dye based confocal microscopic method. In kind it is functional, cell-based.
The test system of experiment [3] is U2OS. Put plainly: Inhibition of mitochondrial-mediated apoptosis in human U2OS cells assessed as reduction in ROS level preincubated for 2 hrs followed by doxycyclin addition measured after 4 hrs by DCFH-DA dye based fluorescence assay. In kind it is functional, cell-based.
A short description of experiment [4]: Cysteine reactivity of the compound at 20 uM after 2 hrs by UPLC analysis.
The nature of experiment [5]: Lysine reactivity of the compound at 20 uM after 2 hrs by UPLC analysis.
A short description of experiment [6]: Glutathione reactivity of the compound at 20 uM after 2 hrs by UPLC analysis.
The nature of experiment [7]: Glutathione reactivity of the compound in PBS buffer at 100 nM up to 35 mins by LC-MS/Ms analysis.
The test system of experiment [8] is U2OS. Nature of the experiment: Inhibition of mitochondrial-mediated apoptosis in human U2OS cells assessed as reduction in mitochondrial membrane potential loss at 100 nM preincubated for 1 hr followed by doxycyclin addition measured after 4 hrs by TMRM dye based confocal microscopic method. Type of experiment: functional, cell-based.
For experiment [9], the species on record is Rattus norvegicus. Put plainly: Protection against middle cerebral artery occlusion-induced transient focal cerebral ischemia in Sprague-Dawley rat assessed as reduction in brain infarct volume at 10 to 200 uM pretreated for 1 hr followed by reperfusion measured 24 hrs post MCAO by TTC staining based assay. Type of experiment: functional.
Experiment [10] relates to U2OS. Nature of the experiment: Inhibition of apoptosis in human U2OS cells over-expressing Bim assessed as mitochondrial cytochrome c release at 20 uM after 1 hr in presence of doxycyclin by confocal microscopic method. In kind it is functional, cell-based.
Experiment [11] relates to U2OS. Put plainly: Inhibition of mitochondrial-mediated apoptosis in human U2OS cells assessed as reduction in mitochondrial membrane potential loss at 10 uM preincubated for 1 hr followed by doxycyclin addition measured after 4 hrs by TMRM dye based confocal microscopic method. In kind it is functional, cell-based.
The subject of experiment [12] is U2OS. Put plainly: Inhibition of mitochondrial-mediated apoptosis in human U2OS cells assessed as reduction in mitochondrial membrane potential loss at 3 nM preincubated for 1 hr followed by doxycyclin addition measured after 4 hrs by TMRM dye based confocal microscopic method. Type of experiment: functional, cell-based.
The species named for experiment [13] is Rattus norvegicus. Put plainly: Protection against middle cerebral artery occlusion-induced transient focal cerebral ischemia in Sprague-Dawley rat assessed as reduction in brain infarct volume at 50 to 200 uM pretreated for 1 hr followed by reperfusion measured 24 hrs post MCAO by TTC staining based assay. In kind it is functional.
Experiment [14] has as its system U2OS. Nature of the experiment: Inhibition of apoptosis in human U2OS cells over-expressing Bim assessed as mitochondrial cytochrome c release at 10 uM after 1 hr in presence of doxycyclin by confocal microscopic method. In kind it is functional, cell-based.

Consider `CCOC(=O)CCS(=O)(=O)c1nc(-c2cccs2)cc(C(F)(F)F)n1`, for which the inhibition result in experiment [1] is “Active”.
Turning to `CS(=O)(=O)c1nc(-c2ccc(=O)n(Cc3ccc(Cl)cc3)c2)cc(C(F)(F)F)n1`, the inhibition entry (with U2OS [2]; in the experiment on U2OS [3]; in experiment [1]) was “Active” each time.
As to `CS(=O)(=O)c1nc(-c2ccccc2)cc(C(F)(F)F)n1`, the inhibition entry in experiment [1] was “Active”.
Regarding `Cc1cc(-c2cccs2)nc(S(C)(=O)=O)n1`, the outcome in experiment [4], in [5] and in experiment [6] was inactive.
Take `COc1ccc(Cn2cc(-c3cc(C(F)(F)F)nc(S(C)(=O)=O)n3)ccc2=O)cc1OC`: the result (in experiment [4]; in [7]; in the experiment listed under Rattus norvegicus [9]; in experiment [6]) was Active. In addition, the inhibition result (in the experiment with U2OS [3]; in the experiment with U2OS [8]; in experiment [1]) was “Active” each time. The outcome in experiment [5] was inactive.
As to `CC(C)[C@H](NC(=O)OCc1ccccc1)C(=O)N[C@@H](C)C(=O)N[C@@H](CC(=O)O)C(=O)O` (HELM PEPTIDE1{[O=C(OCc1ccccc1)[*:2]].V.A.D}$$$$V2.0), the inhibition result with U2OS [10] and with U2OS [11] was “inactive” in each case.
For the compound `CCCOc1cccc(Cn2cc(-c3cc(C(F)(F)F)nc(S(C)(=O)=O)n3)ccc2=O)c1`, the inhibition entry (in the experiment on U2OS [3]; in experiment [1]) was “Active” in each case.
Take `COc1ccc(Cn2cc(-c3cc(C(F)(F)F)nc(S(=O)(=O)CCCC(=O)NC45CC6CC(CC(C6)C4)C5)n3)ccc2=O)cc1OC`: the outcome (in experiment [4]; in experiment [7]; in the experiment listed under Rattus norvegicus [13]; in experiment [6]) was Active. Also, the result in experiment [5] was inactive. The inhibition result (in experiment [1]; in the experiment with U2OS [12]) was “Active” in each case.
As for `CS(=O)(=O)c1nc(-c2ccc(=O)n(Cc3cccc(Cl)c3)c2)cc(C(F)(F)F)n1`, the inhibition result (in the experiment on U2OS [2]; in the experiment on U2OS [3]; in [1]) was “Active” each time.
As to `Cc1ccc(O)c(NC(=O)CCCS(=O)(=O)c2nc(-c3cccs3)cc(C(F)(F)F)n2)c1`, in the experiment on U2OS [14], the inhibition result was “Active”.
As for `CS(=O)(=O)c1nc(-c2ccc(=O)n(Cc3ccccc3Cl)c2)cc(C(F)(F)F)n1`, the inhibition entry in [1] was “Active”.
Still for that read-out and setting: the same measure for `COc1ccc(Cn2cc(-c3cc(C(F)(F)F)nc(S(C)(=O)=O)n3)ccc2=O)cc1`: “Active”.
Turning to `CS(=O)(=O)c1nc(-c2cccs2)cc(C(F)(F)F)n1`, the result in experiment [4] and in [6] was Active. In addition, in experiment [5], the outcome was inactive. For the same compound, the inhibition result in experiment [1] was “Active”.
With `CS(=O)(=O)c1nc(-c2ccc(=O)n(Cc3ccccc3)c2)cc(C(F)(F)F)n1`, the inhibition result (in the experiment with U2OS [3]; with U2OS [11]; in experiment [1]) was “Active” in each case.
As for `COc1cccc(Cn2cc(-c3cc(C(F)(F)F)nc(S(C)(=O)=O)n3)ccc2=O)c1`, the inhibition entry (with U2OS [3]; in experiment [1]) was “Active” throughout.
